Results: patent publication US10774092B2 (SALK INSTITUTE FOR BIOLOGICAL STUDIES, priority 2014, dated 2020)
Where a name gives a salt, the structure may show the parent alone.

The compounds below were run against ULK1 (Homo sapiens, UniProt O75385) (assay: ULK1 inhibition assay (Table 1)). Conditions: * = tested as a mixture of regioisomers.
Assay type: biochemical

ULK1 (Homo sapiens, UniProt O75385), sequence (O75385 whole entry, looked up): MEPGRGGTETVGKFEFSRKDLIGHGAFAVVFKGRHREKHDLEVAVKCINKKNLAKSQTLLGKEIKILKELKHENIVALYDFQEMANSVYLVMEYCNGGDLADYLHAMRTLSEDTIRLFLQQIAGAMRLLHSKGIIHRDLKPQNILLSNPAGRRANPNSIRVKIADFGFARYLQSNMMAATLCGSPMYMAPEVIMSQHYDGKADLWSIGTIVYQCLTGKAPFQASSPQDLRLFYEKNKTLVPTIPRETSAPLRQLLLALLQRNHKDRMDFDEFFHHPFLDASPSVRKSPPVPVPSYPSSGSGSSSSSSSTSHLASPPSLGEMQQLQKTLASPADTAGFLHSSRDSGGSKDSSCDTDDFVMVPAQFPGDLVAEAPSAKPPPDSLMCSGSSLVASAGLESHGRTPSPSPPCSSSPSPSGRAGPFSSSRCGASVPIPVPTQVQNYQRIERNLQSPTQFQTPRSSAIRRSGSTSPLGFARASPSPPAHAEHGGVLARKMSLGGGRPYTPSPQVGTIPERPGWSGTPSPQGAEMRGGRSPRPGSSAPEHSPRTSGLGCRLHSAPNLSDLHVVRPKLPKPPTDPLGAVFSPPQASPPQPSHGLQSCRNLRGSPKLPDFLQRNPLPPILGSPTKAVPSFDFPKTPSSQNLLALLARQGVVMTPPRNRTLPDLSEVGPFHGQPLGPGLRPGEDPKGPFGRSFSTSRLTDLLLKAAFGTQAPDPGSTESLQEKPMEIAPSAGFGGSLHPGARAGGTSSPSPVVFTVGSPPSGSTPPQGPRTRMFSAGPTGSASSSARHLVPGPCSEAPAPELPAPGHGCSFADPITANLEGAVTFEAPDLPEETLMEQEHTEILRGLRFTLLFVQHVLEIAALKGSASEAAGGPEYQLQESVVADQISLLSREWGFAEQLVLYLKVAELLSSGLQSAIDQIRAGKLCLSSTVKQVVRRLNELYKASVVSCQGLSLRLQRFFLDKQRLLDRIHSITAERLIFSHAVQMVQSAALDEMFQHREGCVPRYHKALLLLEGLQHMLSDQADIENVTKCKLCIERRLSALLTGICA

Q: O=C1CCc2cc(Nc3ncc(C(F)(F)F)c(NCC4CC4)n3)ccc2N1 [Example 216, 6-((4-((cyclopropylmethyl)amino)-5-(trifluoromethyl)pyrimidin-2-yl)amino)-3,4-dihydroquinolin-2(1H)-one] was tested. Which IC50 did it give?
A: The IC50 was less than 200 nM.

Q: With O=C1CCc2cc(Nc3ncc(C(F)(F)F)c(Nc4ccc5[nH]ncc5c4)n3)ccc2N1 [Example 185, 6-((4-((1H-indazol-5-yl)amino)-5-(trifluoromethyl)pyrimidin-2-yl)amino)-3,4-dihydroquinolin-2(1H)-one] as the compound, how does the IC50 read?
A: Its IC50 is less than 200 nM.

Q: FC(F)(F)c1cnc(Nc2ccc3[nH]ccc3c2)nc1NC1CC1 [Example 206, N4-cyclopropyl-N2-(1H-indol-5-yl)-5-(trifluoromethyl) pyrimidine-2,4-diamine] was tested. Which IC50 did it give?
A: The IC50 was less than 200 nM.

Q: For O=C(Nc1ccc(Nc2ncc(C(F)(F)F)c(NC3CC3)n2)cc1)C1CC1 [Example 312, N-(4-((4-(cyclopropylamino)-5-(trifluoromethyl)pyrimidin-2-yl)amino)phenyl)cyclopropanecarboxamide], which IC50 is on record?
A: The IC50 was less than 200 nM.

Q: With FC(F)(F)c1cnc(Nc2cnc3ccccc3c2)nc1NC1CC1 [Example 275, N4-cyclopropyl-N2-(quinolin-3-yl)-5-(trifluoromethyl) pyrimidine-2,4-diamine] as the compound, how does the IC50 read?
A: The IC50 was less than 200 nM.

Q: COc1cc(Nc2ncc(Br)c(Oc3ccccc3C(F)(F)F)n2)cc(OC)c1OC [Example 299, 5-bromo-4-(2-(trifluoromethyl)phenoxy)-N-(3,4,5-trimethoxyphenyl)pyrimidin-2-amine] was tested. Which IC50 did it give?
A: The IC50 was less than 200 nM.

Q: Which IC50 does the source give for FC1(F)Oc2ccc(Nc3ncc(C(F)(F)F)c(NC4CC4)n3)cc2O1 [Example 258, N4-cyclopropyl-N2-(2,2-difluorobenzo[d][1,3]dioxol-5-yl)-5-(trifluoromethyl)pyrimidine-2,4-diamine] here?
A: Its IC50 is greater than 2000 nM.

Q: How did the IC50 turn out when O=C1CCc2cc(Nc3ncc(C(F)(F)F)c(NC4COC4)n3)ccc2N1 [Example 193, 6-((4-(oxetan-3-ylamino)-5-(trifluoromethyl)pyrimidin-2-yl)amino)-3,4-dihydroquinolin-2(1H)-one] was run?
A: The IC50 was greater than 2000 nM.

Q: With CC(C)(C)OC(=O)NCCCNc1nc(Nc2ccc3c(c2)CCC(=O)N3)ncc1C(F)(F)F [Example 310, Tert-butyl (3-((2-((2-oxo-1,2,3,4-tetrahydroquinolin-6-yl)amino)-5-(trifluoromethyl)pyrimidin-4-yl)amino)propyl)carbamate] as the compound, how does the IC50 read?
A: The IC50 was less than 200 nM.

Q: For FC(F)(F)c1cnc(Nc2ccnnc2)nc1NC1CC1 [Example 221a, N4-cyclopropyl-N2-(pyridazin-4-yl)-5-(trifluoromethyl)pyrimidine-2,4-diamine], which IC50 is on record?
A: The IC50 was less than 200 nM.

Q: With CNS(=O)(=O)c1ccccc1Nc1nc(Nc2cc(OC)c(OC)c(OC)c2)ncc1Br [Example 237, 2-((5-bromo-2-((3,4,5-trimethoxyphenyl)amino)pyrimidin-4-yl)amino)-N-methylbenzenesulfonamide] as the compound, how does the IC50 read?
A: Its IC50 is 200 to 2000 nM.

Q: For CC1CN1c1nc(Nc2ccc3c(c2)CCC(=O)N3)ncc1C(F)(F)F (stereo not shown) [Example 183a, 6-((4-(2-methylaziridin-1-yl)-5-(trifluoromethyl)pyrimidin-2-yl)amino)-3,4-dihydroquinolin-2(1H)-one], which IC50 is on record?
A: The IC50 was greater than 2000 nM.

Q: Which IC50 does the source give for Nc1nc(Nc2ccc3c(c2)CCC(=O)N3)ncc1C(F)(F)F [Example 209, 6-((4-amino-5-(trifluoromethyl)pyrimidin-2-yl)amino)-3,4-dihydroquinolin-2(1H)-one] here?
A: Its IC50 is 200 to 2000 nM.

Q: O=C(C1CC1)N(C(=O)C1CC1)c1ccc(Nc2ncc(C(F)(F)F)c(NC3CC3)n2)cc1 [Example 311, N-(cyclopropanecarbonyl)-N-(4-((4-(cyclopropylamino)-5-(trifluoromethyl)pyrimidin-2-yl)amino)phenyl)cyclopropanecarboxamide] was tested. Which IC50 did it give?
A: Its IC50 is less than 200 nM.

Q: Which IC50 does the source give for FC(F)(F)c1cnc(Nc2ccc3c(c2)OCO3)nc1NC1CC1 [Example 213, N2-(benzo[d][1,3]dioxol-5-yl)-N4-cyclopropyl-5-(trifluoromethyl)pyrimidine-2,4-diamine] here?
A: Its IC50 is less than 200 nM.

Q: For O=C1CCc2cc(Nc3ncnc(NC4CC4)n3)ccc2N1 [Example 225, 6-((4-(cyclopropylamino)-1,3,5-triazin-2-yl)amino)-3,4-dihydroquinolin-2(1H)-one], which IC50 is on record?
A: The IC50 was greater than 2000 nM.

Q: For CN(c1nc(Nc2ccc3c(c2)CCC(=O)N3)ncc1C(F)(F)F)C1CC1 [Example 202, 6-((4-(cyclopropyl(methyl)amino)-5-(trifluoromethyl)pyrimidin-2-yl)amino)-3,4-dihydroquinolin-2(1H)-one], which IC50 is on record?
A: Its IC50 is less than 200 nM.

Q: How did the IC50 turn out when FC(F)(F)c1cnc(Nc2ccc3ncoc3c2)nc1NC1CC1 [Example 208a, N2-(benzo[d]oxazol-6-yl)-N4-cyclopropyl-5-(trifluoromethyl)pyrimidine-2,4-diamine] was run?
A: The IC50 was less than 200 nM.

Q: How did the IC50 turn out when FC(F)(F)c1cnc(Nc2cnc3[nH]ccc3c2)nc1NC1COC1 [Example 194, N4-(oxetan-3-yl)-N2-(1H-pyrrolo[2,3-b]pyridin-5-yl)-5-(trifluoromethyl)pyrimidine-2,4-diamine] was run?
A: Its IC50 is less than 200 nM.

Q: Which IC50 does the source give for COC(=O)[C@@H]1CCCN1c1nc(Nc2ccc3c(c2)CCC(=O)N3)ncc1C(F)(F)F [Example 227, Methyl (2-((2-oxo-1,2,3,4-tetrahydroquinolin-6-yl)amino)-5-(trifluoromethyl)pyrimidin-4-yl)-L-prolinate] here?
A: Its IC50 is 200 to 2000 nM.

Q: C[C@@H]1COCCN1c1nc(Nc2ccc3c(c2)CCC(=O)N3)ncc1C(F)(F)F [Example 247, (R)-6-((4-(3-methylmorpholino)-5-(trifluoromethyl)pyrimidin-2-yl)amino)-3,4-dihydroquinolin-2(1H)-one] was tested. Which IC50 did it give?
A: The IC50 was less than 200 nM.

Q: How did the IC50 turn out when Nc1ccc(Nc2ncc(C(F)(F)F)c(NC3CC3)n2)cc1 [Example 304a, N2-(4-aminophenyl)-N4-cyclopropyl-5-(trifluoromethyl)pyrimidine-2,4-diamine] was run?
A: Its IC50 is less than 200 nM.

Q: O=C1CCc2cc(Nc3ncc(C(F)(F)F)c(N(CCO)CCO)n3)ccc2N1 [Example 212a, 6-((4-(bis(2-hydroxyethyl)amino)-5-(trifluoromethyl)pyrimidin-2-yl)amino)-3,4-dihydroquinolin-2(1H)-one] was tested. Which IC50 did it give?
A: Its IC50 is greater than 2000 nM.

Q: How did the IC50 turn out when O=C1CCc2cc(Nc3ncc(C(F)(F)F)c(N4CC(F)(F)C4)n3)ccc2N1 [Example 215, 6-((4-(3,3-difluoroazetidin-1-yl)-5-(trifluoromethyl)pyrimidin-2-yl)amino)-3,4-dihydroquinolin-2(1H)-one] was run?
A: The IC50 was less than 200 nM.

Q: Which IC50 does the source give for O=C1CCc2cc(Nc3ncc(C(F)(F)F)c(Nc4cc(C5CCC5)[nH]n4)n3)ccc2N1 [Example 271, 6-((4-((5-cyclobutyl-1H-pyrazol-3-yl)amino)-5-(trifluoromethyl)pyrimidin-2-yl)amino)-3,4-dihydroquinolin-2(1H)-one] here?
A: Its IC50 is less than 200 nM.

Q: CNC(=O)c1ccccc1Oc1ccnc(Nc2cc(OC)c(OC)c(OC)c2)n1 [Example 239, N-methyl-2-((2-((3,4,5-trimethoxyphenyl)amino)pyrimidin-4-yl)oxy)benzamide] was tested. Which IC50 did it give?
A: Its IC50 is greater than 2000 nM.

Q: Which IC50 does the source give for CNC(=O)c1ccccc1Oc1nc(Nc2cc(OC)c(OC)c(OC)c2)ncc1Cl [Example 234a, 2-((5-chloro-2-((3,4,5-trimethoxyphenyl)amino)pyrimidin-4-yl)oxy)-N-methylbenzamide] here?
A: Its IC50 is greater than 2000 nM.

Q: How did the IC50 turn out when Oc1ccc(CCNc2ncc(C(F)(F)F)c(NC3CC3)n2)cc1 [Example 246, 4-(2-((4-(cyclopropylamino)-5-(trifluoromethyl)pyrimidin-2-yl)amino)ethyl)phenol] was run?
A: Its IC50 is 200 to 2000 nM.

Q: With COC(=O)Nc1ccccc1Oc1nc(Nc2cc(OC)c(OC)c(OC)c2)ncc1Br [Example 296, Methyl (2-((5-bromo-2-((3,4,5-trimethoxyphenyl)amino)pyrimidin-4-yl)oxy)phenyl)carbamate] as the compound, how does the IC50 read?
A: Its IC50 is less than 200 nM.

Q: Which IC50 does the source give for O=c1[nH]c2ncc(Nc3nc(Nc4ccc5c(c4)OCCO5)ncc3Br)cc2o1 [Example 192, 6-((5-bromo-2-((2,3-dihydrobenzo[b][1,4]dioxin-6-yl)amino)pyrimidin-4-yl)amino)oxazolo[4,5-b]pyridin-2(3H)-one] here?
A: The IC50 was less than 200 nM.

Q: Which IC50 does the source give for FC(F)(F)c1cnc(NCc2cccc3ccccc23)nc1NC1CC1 [Example 262, N4-cyclopropyl-N2-(naphthalen-1-ylmethyl)-5-(trifluoromethyl)pyrimidine-2,4-diamine] here?
A: Its IC50 is greater than 2000 nM.

The compounds below were run against ULK1 (assay: ULK1 inhibition assay (Table 1)). Conditions: * = tested as a mixture of regioisomers.
Assay type: biochemical

Q: For CNC(=O)c1c(O)cccc1Oc1nc(Nc2cc(OC)c(OC)c(OC)c2)ncc1Br [Example 257, 2-((5-bromo-2-((3,4,5-trimethoxyphenyl)amino)pyrimidin-4-yl)oxy)-6-hydroxy-N-methylbenzamide], which IC50 is on record?
A: Its IC50 is less than 200 nM.

Q: How did the IC50 turn out when O=C1CCc2cc(Nc3nc(NC4CC4)c4ccccc4n3)ccc2N1 [Example 263, 6-((4-(cyclopropylamino)quinazolin-2-yl)amino)-3,4-dihydroquinolin-2(1H)-one] was run?
A: Its IC50 is greater than 2000 nM.

Q: COc1cc(Nc2ncc(Br)c(Oc3ccccc3)n2)cc(OC)c1OC [Example 266, 5-bromo-4-phenoxy-N-(3,4,5-trimethoxyphenyl)pyrimidin-2-amine] was tested. Which IC50 did it give?
A: Its IC50 is less than 200 nM.

Q: With O=C1CCc2cc(Nc3ncc(C(F)(F)F)c(O)n3)ccc2N1 [Example 231b, 6-((4-hydroxy-5-(trifluoromethyl)pyrimidin-2-yl)amino)-3,4-dihydroquinolin-2(1H)-one] as the compound, how does the IC50 read?
A: The IC50 was greater than 2000 nM.

Q: NCCCNc1nc(Nc2ccc3c(c2)CCC(=O)N3)ncc1C(F)(F)F [Example 313, 6-((4-((3-aminopropyl)amino)-5-(trifluoromethyl)pyrimidin-2-yl)amino)-3,4-dihydroquinolin-2(1H)-one.HCl] was tested. Which IC50 did it give?
A: Its IC50 is less than 200 nM.

Q: How did the IC50 turn out when COc1cc(Nc2ncc(Br)c(Oc3ccccc3NC(C)=O)n2)cc(OC)c1OC [Example 254a, N-(2-((5-bromo-2-((3,4,5-trimethoxyphenyl)amino)pyrimidin-4-yl)oxy)phenyl)acetamide] was run?
A: Its IC50 is less than 200 nM.

Q: How did the IC50 turn out when O=C1CCc2cc(Nc3ncc(C(F)(F)F)c(Oc4ccccc4)n3)ccc2N1 [Example 300a, 6-((4-phenoxy-5-(trifluoromethyl)pyrimidin-2-yl)amino)-3,4-dihydroquinolin-2(1H)-one] was run?
A: Its IC50 is greater than 2000 nM.

Q: With CN(c1ccccc1)c1nc(Nc2ccc3c(c2)CCC(=O)N3)ncc1C(F)(F)F [Example 184a, 6-((4-(methyl(phenyl)amino)-5-(trifluoromethyl)pyrimidin-2-yl)amino)-3,4-dihydroquinolin-2(1H)-one] as the compound, how does the IC50 read?
A: Its IC50 is 200 to 2000 nM.

Q: Which IC50 does the source give for O=c1[nH]c2ccc(Nc3nccc(NC4CC4)n3)cc2[nH]1 [Example 232, 5-((4-(cyclopropylamino)pyrimidin-2-yl)amino)-1,3-dihydro-2H-benzo[d]imidazol-2-one] here?
A: The IC50 was greater than 2000 nM.
